Reference: US7025991B2, “Drug targeting system, method of its preparation and its use” (NanoDel Technologies GmbH, priority 1997, dated 2006)

Tested on: mice
Test: hot plate test (analgesic effect) after intravenous or oral application
Format: in vivo
Details: intravenous injection, dalargin dose 10.0 mg/kg
Source text: Dalargin was given either in solution, or after sorptive binding to nanoparticles. The groups (n=10) are as follows:
Dalargin was given either in solution, or after sorptive binding to nanoparticles. The data were collected at different time points following oral application.
Dalargin was given either in solution, or after sorptive binding to nanoparticles that were stabilized with Dextran 12.000.
Dalargin was adsorbed to poly(butyl cyanoacrylate) nanoparticles which were stabilized with polysorbate 85.
After this time, the preparation was injected intravenously into mice at a dalargin dose of 10.0 mg/kg. Various preparations include pure dalargin solution and empty nanoparticles served as controls.
Activity threshold was measured with the hot plate test.
2. […] The analgesia was determined 30, 45, 60, 90, 120 and 150 min after p.o. application.
4. To test the question whether other stabilizers may be used to achieve the desired effect, nanoparticles were investigated in which the stabilizer was the low molecular size dextran 12,000. The dextran 12,000 stabilized nanoparticles of Example 2 were loaded with dalargin, and the analgesic effect was determined in the hot plate test after intravenous injection into mice.

dalargin
analgesic effect, hot plate test: did not exhibit any analgesic effect | analgesic effect, hot plate test (listed as dalargin alone): None of the control groups (empty nanoparticles and dalargin alone) exhibited any analgesic effects
